This note sets out measurements from patent US20140073634A1 (Institute For Applied Cancer Science/The University of …, priority 2012, published 2014).

The test system of this assay is 293T-HRE-GFP-luc cells. The experiment in a line: Cell-based reporter assay for IC50 determinations (HRE-luciferase, hypoxia). The note with it: 6 h, 6 hrs hypoxia (1% O2), luminescence. Put shortly:
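IC50s come from four-parameter logistic fits of luminescence. Compounds in 1:3 DMSO series were added to 293T-HRE-GFP-luc cells, 30 min normoxia preceding 6 hrs at 1% O2, 37° C; HRE-luciferase signal was then measured with Steadylite Plus reagent.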
For orientation: A reporter such as luciferase makes a cellular process visible.
By IC50 is commonly meant the concentration that gives 50% inhibition. A low value points to higher potency. The molecule `COCCOc1cccc(Cn2cc(-c3noc(-c4ccc5c(c4)OC(F)(F)O5)n3)ccc2=O)c1` [Example 224, 5-[5-(2,2-difluoro-2H-1,3-benzodioxol-5-yl)-1,2,4-oxadiazol-3-yl]-1-{[3-(2-methoxyethoxy)phenyl]methyl}-1,2-dihydropyridin-2-one] gave an IC50 of under 100 nM.

On to `COCCOc1cccc(Cn2cc(-c3noc(-c4ccc5[nH]ccc5c4)n3)ccc2=O)c1` [Example 225, 5-[5-(1H-indol-5-yl)-1,2,4-oxadiazol-3-yl]-1-{[3-(2-methoxyethoxy)phenyl]methyl}-1,2-dihydropyridin-2-one], for which the IC50 fell in the range of 100 to 1000 nM.

`COCCOc1cccc(Cn2cc(-c3noc(-c4ccc(NC(C)=O)cc4)n3)ccc2=O)c1` [Example 226, N-{4-[3-(1-{[3-(2-methoxyethoxy)phenyl]methyl}-6-oxo-1,6-dihydropyridin-3-yl)-1,2,4-oxadiazol-5-yl]phenyl}acetamide] yielded an IC50 of 100 to 1000 nM. `COCCOc1cccc(Cn2cc(-c3noc(-c4ccc(COC)cc4)n3)ccc2=O)c1` [Example 227, 1-{[3-(2-methoxyethoxy)phenyl]methyl}-5-{5-[4-(methoxymethyl)phenyl]-1,2,4-oxadiazol-3-yl}-1,2-dihydropyridin-2-one] displayed an IC50 of under 100 nM. `COCCOc1cccc(Cn2cc(-c3noc(-c4ccc5c(c4)CCO5)n3)ccc2=O)c1` [Example 228, 5-[5-(2,3-dihydro-1-benzofuran-5-yl)-1,2,4-oxadiazol-3-yl]-1-{[3-(2-methoxyethoxy)phenyl]methyl}-1,2-dihydropyridin-2-one] had an IC50 of 100 to 1000 nM. `COCCOc1cccc(Cn2cc(-c3noc(-c4ccc(N5CCCC5)cc4)n3)ccc2=O)c1` [Example 229, 1-{[3-(2-methoxyethoxy)phenyl]methyl}-5-{5-[4-(pyrrolidin-1-yl)phenyl]-1,2,4-oxadiazol-3-yl}-1,2-dihydropyridin-2-one] returned an IC50 of under 100 nM. On to `COCCOc1cccc(Cn2cc(-c3noc(-c4ccc(C(C)(C)C)cc4)n3)ccc2=O)c1` [Example 230, 5-[5-(4-tert-butylphenyl)-1,2,4-oxadiazol-3-yl]-1-{[3-(2-methoxyethoxy)phenyl]methyl}-1,2-dihydropyridin-2-one], for which the IC50 lay in the range of 100 to 1000 nM. The molecule `COCCOc1cccc(Cn2cc(-c3noc(-c4cnc(OC)nc4)n3)ccc2=O)c1` [Example 231, 1-{[3-(2-methoxyethoxy)phenyl]methyl}-5-[5-(2-methoxypyrimidin-5-yl)-1,2,4-oxadiazol-3-yl]-1,2-dihydropyridin-2-one] showed an IC50 of 100 to 1000 nM. Consider `COCCOc1cccc(Cn2cc(-c3noc(-c4cnc(N(C)C)nc4)n3)ccc2=O)c1` [Example 232, 5-{5-[2-(dimethylamino)pyrimidin-5-yl]-1,2,4-oxadiazol-3-yl}-1-{[3-(2-methoxyethoxy)phenyl]methyl}-1,2-dihydropyridin-2-one], for which the IC50 is under 100 nM. In the case of `COCCOc1cccc(Cn2cc(-c3noc(-c4ccc(S(=O)(=O)CC(C)C)cc4)n3)ccc2=O)c1` [Example 233, 1-{[3-(2-methoxyethoxy)phenyl]methyl}-5-{5-[4-(2-methylpropanesulfonyl)phenyl]-1,2,4-oxadiazol-3-yl}-1,2-dihydropyridin-2-one], the IC50 is under 100 nM. In turn, `CCCNS(=O)(=O)c1ccc(-c2nc(-c3ccc(=O)n(Cc4cccc(OCCOC)c4)c3)no2)cc1` [Example 234, 4-[3-(1-{[3-(2-methoxyethoxy)phenyl]methyl}-6-oxo-1,6-dihydroylpyridin-3-yl)-1,2,4-oxadiazol-5-yl]-N-propylbenzene-1-sulfonamide] gave an IC50 of 100 to 1000 nM.

With `COCCOc1cccc(Cn2cc(-c3noc(-c4ccc(S(=O)(=O)C(C)C)cc4)n3)ccc2=O)c1` [Example 235, 1-{[3-(2-methoxyethoxy)phenyl]methyl}-5-{5-[4-(propane-2-sulfonyl)phenyl]-1,2,4-oxadiazol-3-yl}-1,2-dihydropyridin-2-one], the half-maximal inhibitory concentration (IC50) lay in the range of 100 to 1000 nM. For `COCCOc1cccc(Cn2cc(-c3noc(-c4ccc(CC(C)C)cc4)n3)ccc2=O)c1` [Example 236, 1-{[3-(2-methoxyethoxy)phenyl]methyl}-5-{5-[4-(2-methylpropyl)phenyl]-1,2,4-oxadiazol-3-yl}-1,2-dihydropyridin-2-one] the value was under 100 nM. In turn, `COCCOc1cccc(Cn2cc(-c3noc(-c4ccc(S(=O)(=O)CCOC)cc4)n3)ccc2=O)c1` [Example 237, 5-{5-[4-(2-methoxyethanesulfonyl)phenyl]-1,2,4-oxadiazol-3-yl}-1-{[3-(2-methoxyethoxy)phenyl]methyl}-1,2-dihydropyridin-2-one] registered an IC50 of 100 to 1000 nM.

As to `COCCOc1cccc(Cn2cc(-c3noc(-c4cnc(N5CCCC5)nc4)n3)ccc2=O)c1` [Example 238, 1-{[3-(2-methoxyethoxy)phenyl]methyl}-5-{5-[2-(pyrrolidin-1-yl)pyrimidin-5-yl]-1,2,4-oxadiazol-3-yl}-1,2-dihydropyridin-2-one], the IC50 is under 100 nM. In turn, `COCCOc1cccc(Cn2cc(-c3noc(-c4cnc(OCCOC)nc4)n3)ccc2=O)c1` [Example 239, 1-{[3-(2-methoxyethoxy)phenyl]methyl}-5-{5-[2-(2-methoxyethoxy)pyrimidin-5-yl]-1,2,4-oxadiazol-3-yl}-1,2-dihydropyridin-2-one] had an IC50 of 100 to 1000 nM. With `COCCOc1cccc(Cn2cc(-c3noc(-c4cnc(OCC(F)(F)F)nc4)n3)ccc2=O)c1` [Example 240, 1-{[3-(2-methoxyethoxy)phenyl]methyl}-5-{5-[2-(2,2,2-trifluoroethoxy)pyrimidin-5-yl]-1,2,4-oxadiazol-3-yl}-1,2-dihydropyridin-2-one], the IC50 was under 100 nM. For `COCCOc1cccc(Cn2cc(-c3noc(-c4cnc(OC(C)C)nc4)n3)ccc2=O)c1` [Example 241, 1-{[3-(2-methoxyethoxy)phenyl]methyl}-5-{5-[2-(propan-2-yloxy)pyrimidin-5-yl]-1,2,4-oxadiazol-3-yl}-1,2-dihydropyridin-2-one] the value was under 100 nM; for `COCCOc1cccc(Cn2cc(-c3noc(-c4cnc(N5CCOCC5)nc4)n3)ccc2=O)c1` [Example 242, 1-{[3-(2-methoxyethoxy)phenyl]methyl}-5-{5-[2-(morpholin-4-yl)pyrimidin-5-yl]-1,2,4-oxadiazol-3-yl}-1,2-dihydropyridin-2-one], under 100 nM; for `COCCOc1cccc(Cn2cc(-c3noc(-c4cnc(N5CCC(C)(C)CC5)nc4)n3)ccc2=O)c1` [Example 243, 5-{5-[2-(4,4-dimethylpiperidin-1-yl)pyrimidin-5-yl]-1,2,4-oxadiazol-3-yl}-1-{[3-(2-methoxyethoxy)phenyl]methyl}-1,2-dihydropyridin-2-one], under 100 nM.

In the case of `COCCOc1cccc(Cn2cc(-c3noc(-c4cnc(C5CC5)nc4)n3)ccc2=O)c1` [Example 244, 5-[5-(2-cyclopropylpyrimidin-5-yl)-1,2,4-oxadiazol-3-yl]-1-{[3-(2-methoxyethoxy)phenyl]methyl} 1,2-dihydropyridin-2-one], the IC50 was under 100 nM. In the case of `CNc1ncc(-c2nc(-c3ccc(=O)n(Cc4cccc(OCCOC)c4)c3)no2)cn1` [Example 245, 1-{[3-(2-methoxyethoxy)phenyl]methyl}-5-{5-[2-(methylamino)pyrimidin-5-yl]-1,2,4-oxadiazol-3-yl}-1,2-dihydropyridin-2-one], the IC50 lay within 100 to 1000 nM. Turning to `COCCOc1cccc(Cn2cc(-c3noc(-c4cnc(NCC(C)C)nc4)n3)ccc2=O)c1` [Example 246], the IC50 was under 100 nM.
